Experimental data taken from patent US11453671B2, “Pyrazolopyrimidine inhibitors of JAK kinases and uses thereof” (Genentech, Inc., priority 2020, dated 2022).
Like-named read-outs stand apart in the source and are kept apart here.

Key:
[1] = system: JAK1: IL-13-stimulated STAT6 phosphorylation in BEAS-2B cells; assay: P-STAT6 BEAS-2B+IL-13 Cell Assay; assay type: cell-based, human; conditions: IL-13 stimulation, read-out: Cellular JAK1 PSTAT6 BEAS2B + IL13 IC50
Procedure: P-STAT6 BEAS-2B+IL-13 Cell Assay
In order to study the effect of JAK1 inhibitors in a cell line that is relevant to the cell biology of human asthma, an IL-13-stimulated STAT6 phosphorylation assay in the human lung bronchial epithelial BEAS-2B cell line was developed.
BEAS-2B cells (ATCC® CRL-9609™) were grown in Bronchial Epithelial Growth Medium (BEGM) (Lonza Catalog No. CC-3170; Walkersville, Md.; or PromoCell Catalog No. C-21060; Heidelberg, Germany). Test compound stock solutions (0.5 mM in DMSO) were serially diluted 1:2 in DMSO to generate a 10-point concentration curve (at 500×test concentration), which was further diluted by a 50-fold dilution step in BEGM to generate a 10× concentration curve (in 2% DMSO). Cells were plated at 100,000 cells/well in 200 μL of BEGM in 96-well plates and incubated for 48 hours at 37° C. in a humidified incubator. Medium was aspirated from the cells and replaced with 70 μL of fresh BEGM. Diluted test compound (10 μL; or 2% DMSO in assay medium) was added to the cells, and the plates were incubated for 1 hour at 37° C. in a humidified incubator. Twenty μL of 250 ng/mL human recombinant IL-13 (Bio Techne Catalog No. 213-ILB) was then added to the cells and incubated for 15 minutes at 37° C. Medium was aspirated from the cells and 60 μL of ice-cold 1×cell lysis buffer (Cell Signaling Technologies; Catalog No. 9803S) containing 1 mM PMSF was added to the cells. Assay plates were incubated at −80° C. for at least 1 hour. P-STAT6 was measured by coating GAR plates (MSD; Catalog No. L45RA-1) with rabbit anti-human total STAT6 antibody (Cell Signaling Technologies; Catalog No. 9362S), incubating the cell lysates in the coated plates overnight at 4° C., and then detecting with mouse anti-phospho-STAT6 (Tyr641) Clone 16E12 antibody (Millipore; Catalog No. 05-590, custom labeled by MSD with SULFO-tag) using standard MSD plate processing, washing, and detection protocols. Plates were read on the MESO SECTOR S600. Data Analysis
Data analysis was performed by subtracting negative control values from all wells and determining percent of control using the positive control values; the IC50 was determined with a four-parameter logistic fit model as shown in Equation 4.

[2] = target: T1, recombinant human JAK1 kinase domain protein (Residues 854-1154) (Homo sapiens, UniProt P23458); assay: JAK1 biochemical assay (microfluidic mobility shift, peptide phosphorylation); conditions: 25 μM ATP, 1 nM total JAK1; read-out: Enzyme JAK1 Ki
T1 construct: human JAK1 kinase domain protein (Residues 854-1154); purchased Proteros Biostructures GmbH (Martinsried, Germany); host or cells: insect cells
Description: JAK1 and JAK2 Biochemical Assays

[3] = Cell cytotoxicity assay HEK-293T (CellTiter-Glo, 72 hours); assay type: cell-based; conditions: human, HEK-293T cells, read-out: Cytotox K-293 EC50
Description: (§1) Cytotoxicity assays. Hepatocyte toxicity, general cytotoxicity or cytotoxicity of unknown mechanism is an undesirable feature for a potential drug, including inhaled drugs. It may be of benefit for an inhaled JAK1 or JAK1/JAK2 inhibitor to have low intrinsic cytotoxicity against various cell types. Typical cell types used to assess cytotoxicity include both primary cells such as human hepatocytes, and proliferating established cell lines such as Jurkat and HEK-293. […] Methods of measuring cytotoxicity are known in the art. In some embodiments, compounds described herein were tested as follows:
(§2) (a) Jurkat and HEK293T cells were maintained at a sub confluent density in T175 flasks. Cells were plated at 450 cells/45 μl medium in Greiner 384 well black/clear tissue culture treated plates. (Greiner Catalog #781091). After dispensing cells, plates were equilibrated at room temperature for 30 minutes. After 30 minutes at room temperature, cells were incubated overnight at 37° C. in a CO2 and humidity controlled incubator. The following day, cells were treated with compounds diluted in 100% DMSO (final DMSO concentration on cells=0.5%) with a 10 point dose-response curve with a top concentration of 50 μM. Cells and compounds were then incubated for 72 hours overnight at 37° C. in a CO2 and humidity controlled incubator. After 72 hours of incubation, viability was measured using CellTiterGlo® (Promega Catalog #G7572) to all wells. After incubation at room temperature for 20 minutes, plates were read on EnVision™ (Perkin Elmer Life Sciences) using luminescence mode;
(§3) A549 (ATCC® CCL-185™), Jurkat clone E6-1 (ATCC® TIB-152™) and HEK-293T (ATCC® CRL-1573™) cells maintained at a sub-confluent density in T175 flasks were used. Cells in exponential growth phase were plated (450 cells in 45 μL of medium) in Greiner 384-well black/clear tissue culture treated plates (Greiner Catalog No. 781091). After dispensing cells, plates were allowed to equilibrate at room temperature for 30 minutes, after which time the cell plates were placed overnight in a 37° C. CO2 and humidity-controlled incubator. The following day, cells were treated with test agent diluted in 100% DMSO (0.5% final DMSO concentration on cells) with a 10-point titration and a top concentration of 50 μM. Cells and compounds were then incubated for 72 hours in a 37° C. CO2 and humidity-controlled incubator, after which time cell viability was measured by adding CellTiter-Glo® (Promega G7572) reagent to all wells. Plates were incubated at room temperature for 20 minutes and then the well luminescence was read on an EnVision plate reader (Perkin Elmer Life Sciences).

[4] = Cell cytotoxicity assay A549 (CellTiter-Glo, 72 hours); assay type: cell-based; conditions: human, A549 cells, read-out: Cytotox A549 EC50
Procedure: as §3

[5] = target: Recombinant human JAK2 kinase domain protein (Residues 812-1132) (Homo sapiens, UniProt O60674); assay: JAK2 biochemical assay (microfluidic mobility shift, peptide phosphorylation); conditions: Enzyme JAK2 Ki (nM), 25 μM ATP, 0.2 nM total JAK2
Procedure: The in vitro biochemical assays quantify JAK-catalyzed phosphorylation of a synthetic peptide, as detected using a LabChip® EZ Reader II microfluidic mobility shift instrument (PerkinElmer; Waltham, Mass.). […] Y-1B is fluorescently labeled on the N-terminus with 5-FAM (5-carboxyfluorescein) and contains a single tyrosine residue (Y) that can be phosphorylated by JAK activity. The substrate peptide stock is prepared in DMSO at 5 mM.
In each titration experiment, test compound was tested in duplicate at each of the twelve concentrations. Blank reactions contained ATP, peptide, and DMSO, but no JAK or test compound, whereas uninhibited control reactions contained ATP, peptide, JAK, and DMSO, but no test compound.
Peptide plus ATP mixture (24 μL) was added to 1 μL of test compound in DMSO (or DMSO alone). The reactions were initiated by adding 25 μL of JAK enzyme to the inhibitor/peptide/ATP mixture before thoroughly mixing the resultant solution. Reactions were incubated at room temperature (22° C.-23° C.) in a final volume of 50 μL per well in 384-well plates.
In each reaction, the residual Y-1B substrate and the phospho-peptide product generated were separated using the EZ Reader II instrument. Electrophoretic separation of molecules of product from molecules of substrate was achieved using downstream and upstream voltages of −500 and −2600 V, respectively, at an operating pressure of −1.3 psi.
The extent (or percent) of conversion of substrate to product was calculated from the corresponding peak heights in the electropherogram using HTS Well Analyzer software, Version 5.2 (PerkinElmer), and the following equation (Equation 1): % conversion=[P÷(S+P)]×100 Equation 1 where S and P represent the peak heights of the substrate and product, respectively. After any baseline signal from blank wells containing no JAK was subtracted from the signal of all test wells, the % conversion data were converted to fractional activity as shown in Equation 2, where vi and vo are the % conversion in the presence and absence of test compound, respectively.

[6] = Cell cytotoxicity assay Jurkat (CellTiter-Glo, 72 hours); assay type: cell-based; conditions: human, Jurkat clone E6-1 cells, read-out: Cytotox Jurkat EC50
Description: as §1, §2, §3

[7] = Mouse lung tissue binding (equilibrium dialysis, RED); assay type: in vitro ADME; conditions: for Mouse LTB %: mouse lung tissue binding, % bound (Table 3); for Lung tissue binding, %: Table 5, sulfone-sulfide analog pairs
Procedure: Mouse lung tissue binding. A high bound fraction or percentage of JAK1/JAK2 inhibitors to lung tissue may be undesirable since it can reduce the amount of free drug available to inhibit JAK1 or JAK2.
(a) Tissue binding experiments were performed in triplicate (n=3) using a Single-Use RED Plate by following the standard protocol. Initially, individual drugs were spiked to tissue homogenates (pH 7.4) to achieve a final concentration of 1 μM, and then 300 μL of drug-tissue homogenate mixtures were transferred to the donor wells of the RED plate which was pre-loaded with 500 μL phosphate buffer saline (133 mM) on the receiver wells. The RED plate was sealed with a gas permeable membrane and placed in a shaking incubator (450 rpm, VWR Symphony™) for 6 hr at 37° C. with 5% CO2. At the end of incubation, aliquots of 30 μL samples were taken out of the RED device and matrix equalized with an equal volume of tissue homogenates or buffer, and resulting samples were then immediately quenched with ice cold acetonitrile (sample:acetonitrile 1:4) containing either propranolol or labetalol as an internal standard. After shaking for 15 min at 500 rpm on a Thermo Scientific Compact Digital MicroPlate Shaker, all samples were then subjected to centrifugation at 3700 rpm for 15 min (Beckman Coulter Allegra X 12R) to remove plasma protein. Subsequently, supernatants were collected and then diluted with an equal volume of water prior to LC-MS/MS analysis.
(b) In an alternate procedure, the extent of lung tissue binding of test compound to mouse lung homogenate may also be determined by equilibrium dialysis using Pierce RED (rapid equilibrium dialysis) devices (Fisher Scientific 89811 & 89809). A 10 mM solution of compound in DMSO was prepared and diluted to 1 mM with DMSO. An aliquot of this 1 mM (4 μL) was added into lung homogenate (dilution factor of 1:9, lung tissue:potassium phosphate buffer (0.05 M, pH 7.4)) to give a final compound incubation concentration of 5 μM with solvent accounting for 0.5% (v/v) of the final incubation volume.
For each assay, the percentage lung tissue bound was determined in triplicate. Lung homogenate (200 μL) was loaded into one side of a RED device insert, in triplicate, and 350 μL of potassium phosphate buffer was loaded into the other side. The RED devices were sealed and incubated for 4 hours at ca. 37° C. on an orbital shaker (˜150 rpm).
Following incubation, an aliquot of lung homogenate (8 μL) and an aliquot of dialysate (72 μL) were matrix matched (lung homogenate with 72 μL phosphate buffer, dialysate with 8 μL lung homogenate) ahead of analysis. Protein was precipitated from the samples with the addition of 160 μL of acetonitrile containing internal standard. The same matrix matching and protein precipitation procedure was performed on lung homogenate aliquots sampled at the start of the experiment (t=0 min samples), for the assessment of the mass balance. The quenched samples were centrifuged (4000 rpm, 30 min, 4° C.) and the resultant supernatant diluted with water (3:1 (v/v), supernatant: water) and the samples analysed for parent compound by liquid chromatography mass spectrometry assay.
The unbound fraction (fu) in lung homogenate was determined from the ratio of the dialysate to homogenate peak area, corrected to take into account the lung homogenate dilution (D) to enable an estimate of whole lung tissue binding using the following equations: Undiluted fu=(1/D)/[((1/Apparent fu)−1)+(1/D)] Corrected fraction bound (%)=(1-undiluted fu)*100

[8] = Table 3, 72 hours, top concentration of 50 μM
[9] = Table 4, methyl-desmethyl analog pairs

Chain of Recombinant human JAK2 kinase domain protein (Residues 812-1132) (O60674 812-1132): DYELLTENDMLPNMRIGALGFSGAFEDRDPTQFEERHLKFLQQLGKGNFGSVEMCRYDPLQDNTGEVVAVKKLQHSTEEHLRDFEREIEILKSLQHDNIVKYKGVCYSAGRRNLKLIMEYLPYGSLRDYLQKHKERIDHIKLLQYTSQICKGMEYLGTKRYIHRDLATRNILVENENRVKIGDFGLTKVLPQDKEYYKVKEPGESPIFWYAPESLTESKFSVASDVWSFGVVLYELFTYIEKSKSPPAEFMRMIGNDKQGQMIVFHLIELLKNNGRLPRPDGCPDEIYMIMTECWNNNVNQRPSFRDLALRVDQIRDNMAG
T1 sequence (P23458 854-1154): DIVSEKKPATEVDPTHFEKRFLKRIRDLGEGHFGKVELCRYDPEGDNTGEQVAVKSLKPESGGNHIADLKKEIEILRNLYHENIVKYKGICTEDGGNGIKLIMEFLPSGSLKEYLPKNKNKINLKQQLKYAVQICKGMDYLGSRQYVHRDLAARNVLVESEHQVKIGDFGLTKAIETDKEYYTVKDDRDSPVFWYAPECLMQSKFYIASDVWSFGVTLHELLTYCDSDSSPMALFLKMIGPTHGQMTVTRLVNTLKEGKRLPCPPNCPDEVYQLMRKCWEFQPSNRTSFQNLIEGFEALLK

Row | SMILES | Ki [2] | Ki [5] | Lung tissue binding, % [7] | IC50 ([1]; Homo sapiens, BEAS-2B) | EC50 at 72 h [3, 8] | EC50 at 72 h [4, 8] | EC50 at 72 h [6, 8] | further results
1 | CC(O)C(C)S(=O)(=O)c1ccc(OC(F)F)c(-c2nn(C)cc2NC(=O)c2cnn3cccnc23)c1 (single isomer, unassigned) [Example 69, N-[3-[2-(difluoromethoxy)-5-(2-hydroxy-1-methyl-propyl)sulfonyl-phenyl]-1-methyl-pyrazol-4-yl]pyrazolo[1,5-a]pyrimidine-3-carboxamide] | – | – | – | – | – | – | – | IC50 [1]: 77 nM; Mouse LTB % [7]: 78.4%
2 | Cn1cc(NC(=O)c2cnn3cccnc23)c(-c2cc(S(=O)(=O)C(F)F)ccc2OC(F)F)n1 [Example 9, N-[3-[2-(difluoromethoxy)-5-(difluoromethylsulfonyl)phenyl]-1-methyl-pyrazol-4-yl]pyrazolo[1,5-a]pyrimidine-3-carboxamide] | 0.27 nM | 0.18 nM | – | 15 nM | 2200 nM | 1660 nM | 3500 nM | EC50 at 72 h [3, 9]: 2200 nM; EC50 at 72 h [4, 9]: 1660 nM; EC50 at 72 h [6, 9]: 3500 nM
3 | Cn1cc(NC(=O)c2cnn3cccnc23)c(-c2cc(S(=O)(=O)c3cccc(O)c3)ccc2OC(F)F)n1 [Example 11, N-[3-[2-(difluoromethoxy)-5-(3-hydroxyphenyl)sulfonyl-phenyl]-1-methyl-pyrazol-4-yl]pyrazolo[1,5-a]pyrimidine-3-carboxamide] | 0.21 nM | 0.12 nM | – | 17 nM | 3700 nM | 6400 nM | 5500 nM | –
4 | CNCCn1cc(S(=O)(=O)c2ccc(OC(F)F)c(-c3nn(C)cc3NC(=O)c3cnn4cccnc34)c2)cn1 [Example 48, N-[3-[2-(difluoromethoxy)-5-[1-[2-(methylamino)ethyl]pyrazol-4-yl]sulfonyl-phenyl]-1-methyl-pyrazol-4-yl]pyrazolo[1,5-a]pyrimidine-3-carboxamide] | 0.52 nM | 0.39 nM | – | 130 nM | – | – | – | Mouse LTB % [7]: 91.3%
5 | CN1CCC[C@H]1Cn1cc(NC(=O)c2cnn3cccnc23)c(-c2cc(S(C)(=O)=O)ccc2OC(F)F)n1 [Example 72, N-[3-[2-(difluoromethoxy)-5-methylsulfonyl-phenyl]-1-[[(2S)-1-methylpyrrolidin-2-yl]methyl]pyrazol-4-yl]pyrazolo[1,5-a]pyrimidine-3-carboxamide] | 0.94 nM | 1.5 nM | – | 31 nM | 20000 nM | ≥ 50000 nM | 49000 nM | –
6 | Cn1cc(NC(=O)c2cnn3cccnc23)c(-c2cc(SC3COC3)ccc2OC(F)F)n1 [reference compound] | – | – | 97.4% | – | – | – | – | –

Second part, led by results:

Row | Ki [2] | Ki [5] | Lung tissue binding, % [7] | SMILES | IC50 ([1]; Homo sapiens, BEAS-2B) | EC50 at 72 h [3, 8] | EC50 at 72 h [4, 8] | EC50 at 72 h [6, 8] | further results
7 | 0.6 nM | 0.25 nM | – | CC(O)C(C)S(=O)(=O)c1ccc(OC(F)F)c(-c2nn(C)cc2NC(=O)c2cnn3cccnc23)c1 (single isomer, unassigned) [Example 68, N-[3-[2-(difluoromethoxy)-5-(2-hydroxy-1-methyl-propyl)sulfonyl-phenyl]-1-methyl-pyrazol-4-yl]pyrazolo[1,5-a]pyrimidine-3-carboxamide] | 62 nM | 19000 nM | ≥ 50000 nM | 32000 nM | –
8 | – | – | 96.9% | CSc1ccc(OC(F)F)c(-c2nn(CC#N)cc2NC(=O)c2cnn3cccnc23)c1 [reference compound] | – | – | – | – | –
9 | – | – | 97% | Cn1cc(Sc2ccc(OC(F)F)c(-c3nn(C)cc3NC(=O)c3cnn4cccnc34)c2)cn1 [reference compound] | – | – | – | – | –
